From EP0257993B1, “Nucleic acid fragment encoding herbicide resistant plant acetolactate synthase” (priority 1986, dated 1988)
Read-outs that look alike come from different tables or passages of the source.

Legend:
[1] = test system: Brassica napus callus tissue; test: Kanamycin selection of Brassica napus hypocotyl explants; format: cell-based, Brassica napus cv. Olga; conditions: of 100 wound sites; kanamycin 100 mg/L
tobacco callus [2] = conditions: Kanamycin, 50 mg/L
Protocol: For plant cell transformations, standard aseptic techniques for the manipulation of sterile media and axenic plant/bacterial cultures were followed, including the use of a laminar flow hood for all transfers. Recipes for media are given in Example VI. Potted tobacco plants for leaf disk infections were grown in a growth chamber maintained for a 12 hr. 24°C day, 12 hr, 20°C night cycle, with approximately 80% relative humidity, under mixed cool white fluorescent and incandescent lights. Tobacco leaf disk infections were carried out essentially by the method of Horsch et al. (1985) Science 227, 1229.
Young leaves, not fully expanded and approximately 4-6 inches in length, were harvested with a scalpel from approximately 4-6 week old tobacco plants (Nicotiana tabacum var. Xanthi). The leaves were surface sterilized for 30 minutes by submerging them in approximately 500 ml of a 10% Chlorox, 0.1% SDS solution and then rinsed 3 times with sterile deionized water. Leaf disks, 6 mm in diameter, were prepared from whole leaves using a sterile paper punch.
Leaf disks were inoculated by submerging them for several minutes in 20 ml of a 1:10 dilution of an overnight Agrobacterium culture carrying the plasmid GCKNT13. Agrobacterium cultures were started by inoculating 10 ml of YEB broth with a single bacterial colony removed form a R-agar plate. The culture was grown for approximately 17-20 hours in 18 mm glass culture tubes in a New Brunswick platform shaker maintained at 28°C.
After inoculation, the leaf disks were placed in petri dishes containing CN agar medium. The dishes were sealed with paraflm and incubated under mixed fluorescent and "Gro and Sho" plant light (General Electric) for 2-3 days in a culture room maintained at approximately 25°C.
[…] Cefotaxime was kept as a frozen 100 mg/ml stock solution and added aseptically (filter sterilized through a 0.45 µm filter) to the media after autoclaving. A fresh kanamycin stock (50 mg/ml) was made for each use and was filter sterilized into the autoclaved media.
Leaf disks were incubated under the growth conditions described above for 3 weeks and then transferred to fresh media of the same composition.
Root formation on selective and non-selective media was recorded within 3 weeks.
Callus growth on selective and non-selective media was recorded within 3 weeks.

Brassica napus = Brassica napus plants sprayed with chlorsulfuron; format: in vivo, Brassica napus cv. Olga
ALS = format: biochemical, Nicotiana tabacum; conditions: C3 and S4 lines
Protocol: (§1) Callus cultures of sensitive tobacco (Nicotiana tabacum var. Xanthi) were exposed to sulfometuron methyl at 2 ppb according to the method described by Chaleff, U.S. 4,443,971. […] Plants were regenerated from Hra callus cultures. […] ALS activity in extracts of leaves of wild type and homozygous Hra mutant tobacco plants was determined.

calli of B. vulgaris = test: Chlorsulfuron resistance of sugarbeet calli; format: cell-based, Beta vulgaris 87193
Description: Selection for transformed plant cells was applied as follows. […] The number of resistant colonies was counted after 20-30 days. More than one may be observed at each wound. Transformants were excised as follows. Callus was removed from the wound/explant with a surgical blade and cultured independently on fresh selective media. Some Agrobacterium can escape from counter-selection. Additional washes in cefotaxime containing liquid media are possible, as is repeated transfer to cefotaxime containing agar solidified plates. […]

tobacco callus [3] = test: Growth of tobacco mutant callus (C3, S4, Hra) on herbicide; format: cell-based, Nicotiana tabacum var. Xanthi; conditions: Hra cell line
Protocol: as §1

With `NC[C@H]1O[C@H](O[C@H]2[C@H](O)[C@@H](O[C@H]3O[C@H](CO)[C@@H](O)[C@H](N)[C@H]3O)[C@H](N)C[C@@H]2N)[C@H](O)[C@@H](O)[C@@H]1O` [Kanamycin] the “wound sites that developed callus tissue resistant to kanamycin” value [1] was 20, the “Number of transformed shoot explants producing callus on selective and non-selective media” value (shortened to “Number … on selective and non-selective media”) (tobacco callus [2]; EXP. #1, GV3850) was 0/10 and the “Number … on selective and non-selective media” value (tobacco callus [2]; EXP. #1, GVKK) was 8/13. For the same compound, the “Number … on selective and non-selective media” value (tobacco callus [2]; EXP. #1, GVKNT13) was 53/62, the “Number … on selective and non-selective media” value (tobacco callus [2]; Exp. #2, GV3850) was 0/25 and the “Number … on selective and non-selective media” value (tobacco callus [2]; Exp. #2, GVKK) was 16/23. The “Number … on selective and non-selective media” value (tobacco callus [2]; Exp. #2, GVKNT13) was 81/102.

For `COc1nc(C)nc(NC(=O)NS(=O)(=O)c2ccccc2Cl)n1` [chlorsulfuron], the “growth of plants sprayed with chlorsulfuron” value (shortened to “growth of plants sprayed”) (Brassica napus; Ro #1, 0.3 ppm) was “++”, the “growth of plants sprayed” value (Brassica napus; Ro #1, 1 ppm) was “++” and the “growth of plants sprayed” value (Brassica napus; Ro #1, 3 ppm) was “++”. For the same compound, the “growth of plants sprayed” value (Brassica napus; Ro #1, 10 ppm) was “+”, the “growth of plants sprayed” value (Brassica napus; Ro #2, 0.3 ppm) was “++” and the “growth of plants sprayed” value (Brassica napus; Ro #2, 1 ppm) was “+”. The “growth of plants sprayed” value (Brassica napus; Ro #2, 3 ppm) was “-”, the “growth of plants sprayed” value (Brassica napus; Ro #2, 10 ppm) was “-” and the “growth of plants sprayed” value (Brassica napus; Ro #3, 0.3 ppm) was “++”. For the same compound, the “growth of plants sprayed” value (Brassica napus; Ro #3, 1 ppm) was “+”, the “growth of plants sprayed” value (Brassica napus; Ro #3, 3 ppm) was “+” and the “growth of plants sprayed” value (Brassica napus; Ro #3, 10 ppm) was “-”. For the same compound, the “growth of plants sprayed” value (Brassica napus; Ro #4, 0.3 ppm) was “++”, the “growth of plants sprayed” value (Brassica napus; Ro #4, 1 ppm) was “+” and the “growth of plants sprayed” value (Brassica napus; Ro #4, 3 ppm) was “-”. For the same compound, the “growth of plants sprayed” value (Brassica napus; Ro #4, 10 ppm) was “-”, the “growth of plants sprayed” value (Brassica napus; Ro #5, 0.3 ppm) was “+++” and the “growth of plants sprayed” value (Brassica napus; Ro #5, 1 ppm) was “++”. The “growth of plants sprayed” value (Brassica napus; Ro #5, 3 ppm) was “++”, the “growth of plants sprayed” value (Brassica napus; Ro #5, 10 ppm) was “+” and the “growth of plants sprayed” value (Brassica napus; untransformed, 0.3 ppm) was “++”. For the same compound, the “growth of plants sprayed” value (Brassica napus; untransformed, 1 ppm) was “+”, the “growth of plants sprayed” value (Brassica napus; untransformed, 3 ppm) was “-” and the “growth of plants sprayed” value (Brassica napus; untransformed, 10 ppm) was “-”. The “resistance of ALS enzyme activity compared with ALS from wild type” value (ALS) was “one-hundred fold”, the “level of chlorsulfuron resistance in calli of B. vulgaris” value (“level of chlorsulfuron resistance” below) (calli of B. vulgaris; 87193/0 (untransformed), Chlorsulfuron 10 ppb) was 0/15 and the “level of chlorsulfuron resistance” value (calli of B. vulgaris; 87193/0 (untransformed), Chlorsulfuron 30 ppb) was 0/15. The “level of chlorsulfuron resistance” value (calli of B. vulgaris; 87193/152 (transformed, pAGS152), Chlorsulfuron 10 ppb) was 15/15, the “level of chlorsulfuron resistance” value (calli of B. vulgaris; 87193/152 (transformed, pAGS152), Chlorsulfuron 30 ppb) was 15/15 and the “level of chlorsulfuron resistance” value (calli of B. vulgaris; 87193/152 (transformed, pAGS152), Chlorsulfuron 100 ppb) was 15/15. For the same compound, the “level of chlorsulfuron resistance” value (calli of B. vulgaris; 87193/152 (transformed, pAGS152), Chlorsulfuron 300 ppb) was 15/15, the “level of chlorsulfuron resistance” value (calli of B. vulgaris; 87193/152 (transformed, pAGS152), Chlorsulfuron 1000 ppb) was 15/15 and the “level of chlorsulfuron resistance” value (calli of B. vulgaris; 87193/152 (transformed, pAGS152), Chlorsulfuron 3000 ppb) was 3/15. For the same compound, the “level of chlorsulfuron resistance” value (calli of B. vulgaris; 87193/152 (transformed, pAGS152), Chlorsulfuron 10000 ppb) was 0/15 and the “cross resistance of cell line” value (tobacco callus [3]) was “cross resistant”.
